Results on two compounds are retold here after patent publication US5637586A, “Benzimidazolesulfonamide derivatives and pharmaceutical composition” (Kureha Chemical Industry Co., Ltd., priority 1994, dated 1997).

For test [1], the system named is angiotensin II receptor subtype 2 (AT2). Briefly: Binding to receptors: inhibition of radioligand (125I-Tyr4-angiotensin II) binding to AT2. The conditions noted are these: bovine cerebellar cortex, tracer 125I-Tyr4-angiotensin II, displacer angiotensin II (human), 37° C., 1 hour. The protocol: (§1) In this Example, the affinity to the angiotensin II receptor subtype 1 or subtype 2 was evaluated by a binding assay in accordance with the method described in Biochem. Pharmacol., 33, 4057-4062 (1984).
(§2) Specifically, the measurement of the total binding in the presence of each drug was performed as follows:
(§3) A mixture (final volume=0.25 ml) of a drug in a given concentration (the drug was dissolved in dimethylsulfoxide, and diluted to a double volume with a buffer attached to a drug discovery system to prepare a sample for the assay; 0.025 ml), a tracer (0.025 ml), and receptors (0.2 ml) was incubated [in the case of the angiotensin II receptor subtype 1 (AT1), at room temperature for 3 hours, and in the case of the subtype 2 (AT2), at 37° C. for 1 hour]. Then, the reaction mixture was filtered with suction (GF/C filter was used in AT1, and GF/B filter was used in AT2). The filter papers after filtration with suction (the tracer bound to the receptors) were counted by a γ-wellcounter (ARC-500, Aloka). The non-specific bindings were measured by repeating the above method, except that a large excess amount of a displacer was added. The specific binding of the drug in the given concentration was calculated by subtracting the non-specific binding from the total binding, respectively. […]

For test [2], the system named is angiotensin II receptor subtype 1 (AT1). Briefly: Binding to receptors: inhibition of radioligand (3H-angiotensin II) binding to AT1. The following applies: rabbit adrenal glands, tracer 3H-angiotensin II, displacer DuP753, room temperature. The method, then: as §1, §2, §3

`CCCCc1nc2ccc(S(=O)(=O)N3CCOCC3)cc2n1Cc1ccc(-c2ccccc2-c2nn[nH]n2)cc1` [Compound No. 1, 4-[[2-n-butyl-1-[2'-[(1H-tetrazol-5-yl)biphenyl-4-yl]methyl]benzimidazol-6-yl]sulfonyl]morpholin]: the “Binding inhibition % in 1 μM, AT2” value in test [1] is given as 0%. Also, in test [2], the “Binding inhibition % in 1 μM, AT1” value was 100%.

As to `CCCCc1nc(Cl)c(CO)n1Cc1ccc(-c2ccccc2-c2nnn[nH]2)cc1` [DuP753, 2-butyl-4-chloro-5-(hydroxymethyl)-1-[[2'-(1H-tetrazol-5-yl)biphenyl-4-yl]methyl]imidazole], the “Binding inhibition % in 1 μM, AT2” value in test [1] is 0%. The “Binding inhibition % in 1 μM, AT1” value in test [2] is on record as 95%.
